Experimental data reported in patent US10973896B2, “Treatment or prevention of melanoma using photochemical internalization of a melanoma antigen” (PCI Biotech AS, priority 2014, dated 2021).

Legend:
[1] = test system: splenocytes re-stimulated with SIINFEKL; test: IL-2 and IFN-γ ELISA of re-stimulated splenocytes (Example 2); assay type: in vivo, C57BL/6 mice; conditions: day 11 splenocytes, 10 μg OVA alone, or with PCI at 25 μg TPCS2a
Procedure: Alternatively, 2×10^5 splenocytes were re-stimulated in 96-well plates with OVA protein or the SIINFEKL. After 24 and 72 hours, supernatants were collected and analysed for IL-2 or IFN-γ by ELISA (eBioscience—performed according to the manufacturer's instructions).

[2] = test system: SIINFEKL-specific CD8 T cells; test: Intradermal PCI immunisation, antigen-specific CD8 T cells in blood by pentamer flow cytometry (Example 1); assay type: in vivo, C57BL/6 mice; conditions: 10 μg OVA with or without 100 μg TPCS2a i.d., skin illuminated 18 hours later; FIG. 1A
Procedure: C57BL/6 mice were immunised at 6-10 weeks of age. One day prior to immunisation, 10,000 OT-I spleen and lymph node cells were administered by intravenous injection into the recipient C57BL/6 mice (see Example 2). The next day, the fur was shaven off the abdominal region and 100 μl of the vaccine preparations were injected intradermally. The doses of OVA and TPCS2a were 10 μg and 100 μg, respectively. After 18 hours, the anaesthetised mice were placed on the light source for six minutes illumination (4.86 J/cm2) for activation of TPCS2a.
The frequency of antigen-specific CD8 T cells was monitored in blood and spleen by flow cytometry using H-2K^b/SIINFEKL Pro5 pentamer (Proimmune, Oxford, UK). Cell-surface expression of CD4, CD8, and CD44 and intracellular production of IFN-γ was analysed by flow cytometry after Fc-receptor blocking with anti-CD16/32. The intracellular staining was after overnight incubation at 37° C. with 0.1 μg SIINFEKL. Brefeldin A (2.5 μg/ml) was added during the last 4 hours. The cells were fixed with 4% formaldehyde for 10 minutes, permeabilised in 0.1% NP40 for 3 minutes, and stained with anti-IFN-γ for 35 minutes. […] Acquisition was performed on FACSCanto (BD Biosciences, San Jose, USA) and data analysed with FlowJo 8.5.2 (Tree Star, Inc., Ashland, Oreg.). […] Supernatants were collected after 24-72 hours and analysed using cytokine ELISA kits (eBioscience).

OVA: Chicken ovalbumin protein, model antigen expressed by the transfected B16 melanoma cells
IL-2 secretion by ELISA ([1]; 24 hours): weak but clearly measurable
IFN-γ secretion by ELISA ([1]; 72 hours): not IFN-γ secretion
frequency of pentamer (H2K^d-SIINFEKL)-binding CD8 T cells in blood [2]: No or little so-called cross priming
